Measured values from PubChem BioAssay (NCI).
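Step 1: Grow cells in 96-well plates. Step 2: Expose to compound for 48 hours at 5 concentrations. Step 3: Interpolate endpoints linearly; if unreached, use highest concentration. TGI denotes the concentration required for complete inhibition of growth.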

Tests used:
Assay in all cases: NCI-60 cell line screen, 48 h
UO-31 renal = test system: UO-31 renal
MDA-N = test system: MDA-N
TK-10 renal = test system: TK-10 renal
OVCAR-3 ovarian = test system: OVCAR-3 ovarian
K-562 leukemia = test system: K-562 leukemia
OVCAR-4 ovarian = test system: OVCAR-4 ovarian
MDA-MB-435 = test system: MDA-MB-435
UACC-62 melanoma = test system: UACC-62 melanoma
IGROV1 ovarian = test system: IGROV1 ovarian
DU-145 prostate = test system: DU-145 prostate
HS 578T breast = test system: HS 578T breast
HCC-2998 colon = test system: HCC-2998 colon
M14 melanoma = test system: M14 melanoma
COLO 205 colon = test system: COLO 205 colon
SR leukemia = test system: SR leukemia
SK-OV-3 ovarian = test system: SK-OV-3 ovarian
RPMI-8226 leukemia = test system: RPMI-8226 leukemia
CCRF-CEM leukemia = test system: CCRF-CEM leukemia
T-47D breast = test system: T-47D breast
SF-268 CNS = test system: SF-268 CNS
SW-620 colon = test system: SW-620 colon
SNB-19 CNS = test system: SNB-19 CNS
786-0 renal = test system: 786-0 renal
HOP-62 NSCLC = test system: HOP-62 NSCLC
HL-60(TB) leukemia = test system: HL-60(TB) leukemia
SK-MEL-28 melanoma = test system: SK-MEL-28 melanoma
MDA-MB-231 breast = test system: MDA-MB-231 breast
NCI-H460 lung = test system: NCI-H460 lung
SF-295 CNS = test system: SF-295 CNS
RXF 393 renal = test system: RXF 393 renal
OVCAR-5 ovarian = test system: OVCAR-5 ovarian
MALME-3M melanoma = test system: MALME-3M melanoma
KM12 colon = test system: KM12 colon
SN12C renal = test system: SN12C renal
MCF7 breast = test system: MCF7 breast
NCI-H522 lung = test system: NCI-H522 lung
A549 NSCLC = test system: A549 NSCLC
SNB-75 CNS = test system: SNB-75 CNS
CAKI-1 renal = test system: CAKI-1 renal
HT29 colon = test system: HT29 colon
NCI/ADR-RES ovarian = test system: NCI/ADR-RES ovarian
NCI-H23 lung = test system: NCI-H23 lung
HCT-116 colon = test system: HCT-116 colon
SF-539 CNS = test system: SF-539 CNS
U251 CNS = test system: U251 CNS
A498 renal = test system: A498 renal
HCT-15 colon = test system: HCT-15 colon
ACHN renal = test system: ACHN renal
SK-MEL-5 melanoma = test system: SK-MEL-5 melanoma
MOLT-4 leukemia = test system: MOLT-4 leukemia
EKVX NSCLC = test system: EKVX NSCLC
NCI-H226 lung = test system: NCI-H226 lung
PC-3 prostate = test system: PC-3 prostate
SK-MEL-2 melanoma = test system: SK-MEL-2 melanoma
UACC-257 melanoma = test system: UACC-257 melanoma
OVCAR-8 ovarian = test system: OVCAR-8 ovarian
LOX IMVI melanoma = test system: LOX IMVI melanoma
HOP-92 NSCLC = test system: HOP-92 NSCLC

Measured: TGI

COc1ccc(S(=O)(=O)O)cc1-n1nc(C(=O)Nc2ccccc2)n[n+]1-c1cc(S(=O)(=O)[O-])ccc1OC
> 100 µM: UO-31 renal | MDA-N | TK-10 renal | OVCAR-3 ovarian | K-562 leukemia | OVCAR-4 ovarian | MDA-MB-435 | UACC-62 melanoma | IGROV1 ovarian | DU-145 prostate | HS 578T breast | HCC-2998 colon | M14 melanoma | COLO 205 colon | SR leukemia | SK-OV-3 ovarian | RPMI-8226 leukemia | CCRF-CEM leukemia | T-47D breast | SF-268 CNS | SW-620 colon | SNB-19 CNS | 786-0 renal | HOP-62 NSCLC | HL-60(TB) leukemia | SK-MEL-28 melanoma | MDA-MB-231 breast | NCI-H460 lung | SF-295 CNS | RXF 393 renal | OVCAR-5 ovarian | MALME-3M melanoma | KM12 colon | SN12C renal | MCF7 breast | NCI-H522 lung | A549 NSCLC | SNB-75 CNS | CAKI-1 renal | HT29 colon | NCI/ADR-RES ovarian | NCI-H23 lung | HCT-116 colon | SF-539 CNS | U251 CNS | A498 renal | HCT-15 colon | ACHN renal | SK-MEL-5 melanoma | MOLT-4 leukemia | EKVX NSCLC | NCI-H226 lung | PC-3 prostate

O=C(/C=C/c1cccc(Br)c1)c1cccs1
41.6 µM: MALME-3M melanoma | NCI-H23 lung
37.6 µM: OVCAR-8 ovarian
17.7 µM: HL-60(TB) leukemia
31.6 µM: NCI-H460 lung | KM12 colon | PC-3 prostate
61.3 µM: HCC-2998 colon
28.2 µM: SNB-75 CNS
27.5 µM: SW-620 colon
31.8 µM: OVCAR-4 ovarian
33 µM: MCF7 breast | UACC-257 melanoma
> 100 µM: SR leukemia
36.6 µM: IGROV1 ovarian
72.3 µM: HS 578T breast
35.8 µM: HCT-15 colon
37.4 µM: EKVX NSCLC
73.8 µM: HOP-62 NSCLC
30.2 µM: SF-295 CNS
36.2 µM: A549 NSCLC
25.5 µM: MDA-MB-435
32.9 µM: SK-MEL-28 melanoma
56.9 µM: NCI/ADR-RES ovarian
26.8 µM: U251 CNS
16.6 µM: K-562 leukemia
31.1 µM: SN12C renal
46 µM: COLO 205 colon
38.8 µM: MDA-MB-231 breast
31.9 µM: SF-539 CNS
39.8 µM: ACHN renal
51.1 µM: M14 melanoma
33.2 µM: A498 renal
42.1 µM: SF-268 CNS
25.3 µM: HT29 colon
31.5 µM: TK-10 renal
34 µM: T-47D breast
31.4 µM: 786-0 renal
44.1 µM: SK-MEL-2 melanoma
23.6 µM: CCRF-CEM leukemia
25.7 µM: UO-31 renal
53.2 µM: MOLT-4 leukemia
5.42 µM: RPMI-8226 leukemia
18 µM: HCT-116 colon
32.6 µM: CAKI-1 renal
28.3 µM: SNB-19 CNS
46.8 µM: SK-OV-3 ovarian
22.3 µM: MDA-N
32.7 µM: UACC-62 melanoma | NCI-H226 lung
30.7 µM: SK-MEL-5 melanoma

O=[N+]([O-])/C(C(Cl)=C(Cl)Cl)=C1\NCCO1
> 100 µM: UO-31 renal | MDA-N | TK-10 renal | OVCAR-3 ovarian | K-562 leukemia | OVCAR-4 ovarian | MDA-MB-435 | UACC-62 melanoma | IGROV1 ovarian | DU-145 prostate | HCC-2998 colon | M14 melanoma | COLO 205 colon | SR leukemia | SK-OV-3 ovarian | RPMI-8226 leukemia | T-47D breast | SF-268 CNS | SNB-19 CNS | 786-0 renal | LOX IMVI melanoma | HOP-62 NSCLC | HL-60(TB) leukemia | SK-MEL-28 melanoma | MDA-MB-231 breast | SK-MEL-2 melanoma | NCI-H460 lung | SF-295 CNS | RXF 393 renal | OVCAR-5 ovarian | MALME-3M melanoma | KM12 colon | SN12C renal | MCF7 breast | NCI-H522 lung | UACC-257 melanoma | A549 NSCLC | CAKI-1 renal | HT29 colon | NCI/ADR-RES ovarian | NCI-H23 lung | HCT-116 colon | OVCAR-8 ovarian | SF-539 CNS | U251 CNS | A498 renal | HCT-15 colon | ACHN renal | SK-MEL-5 melanoma | MOLT-4 leukemia | EKVX NSCLC | NCI-H226 lung | PC-3 prostate
66.7 µM: CCRF-CEM leukemia
90.5 µM: HS 578T breast

CC1(C)N=C(C(N)=O)c2ncn(CCO)c2N1
> 100 µM: MDA-N | TK-10 renal | OVCAR-3 ovarian | K-562 leukemia | OVCAR-4 ovarian | MDA-MB-435 | HOP-92 NSCLC | UACC-62 melanoma | IGROV1 ovarian | DU-145 prostate | HS 578T breast | HCC-2998 colon | M14 melanoma | COLO 205 colon | SR leukemia | SK-OV-3 ovarian | RPMI-8226 leukemia | CCRF-CEM leukemia | T-47D breast | SF-268 CNS | SW-620 colon | SNB-19 CNS | 786-0 renal | LOX IMVI melanoma | HOP-62 NSCLC | HL-60(TB) leukemia | SK-MEL-28 melanoma | MDA-MB-231 breast | NCI-H460 lung | SF-295 CNS | RXF 393 renal | OVCAR-5 ovarian | MALME-3M melanoma | KM12 colon | SN12C renal | MCF7 breast | NCI-H522 lung | UACC-257 melanoma | A549 NSCLC | CAKI-1 renal | HT29 colon | NCI/ADR-RES ovarian | NCI-H23 lung | HCT-116 colon | OVCAR-8 ovarian | SF-539 CNS | U251 CNS | A498 renal | HCT-15 colon | ACHN renal | SK-MEL-5 melanoma | EKVX NSCLC | NCI-H226 lung | PC-3 prostate
